Results as given in US8299083B2, “PDE5 inhibitor compositions and methods for treating cardiac indications” (The Johns Hopkins University, priority 2004, dated 2012).

Assays:
[1] = test system: C57BL/6 mice, pressure overload by transverse aortic constriction; test: TAC-induced cardiac hypertrophy, remodeling and fibrosis (heart weight/tibia length, histology); assay type: in vivo, mouse
Text: TAC induced marked heart chamber and cellular hypertrophy (+100% by 3-weeks) that progressed to chamber dilation with reduced fractional shortening after 9 weeks. […] TAC induced a time-dependent increase in myocardial fibrosis and myocyte hypertrophy and both were suppressed by PDE5A inhibition (FIG. 1C, e.g. 67% reduction in fibrosis in 9-week hearts, p<0.0001).
(§1) Pressure overload was produced by transverse aortic constriction.
Hearts were fixed with 10% formalin overnight, then embedded in paraffin, sectioned at 5 μm thickness and stained with PAS methenamine. Cardiomyocyte diameter and interstitial collagen fraction were determined using computer-assisted image analysis (Adobe Photoshop 5.0, NIH Image J), with the observer blinded as to tissue source. At least 4-5 different hearts, with five separate fields of cells (total 50-70 cells for each heart) were quantified for cellular analysis.

STAT3 = test: IL-6 induced STAT3 activation in neonatal rat myocytes; assay type: cell-based; details: sildenafil 1 μM
Procedure: Myocardial tissue extract was electrophoresed in SDS-New Page gel, and probed for both tyrosine phosphorylated (Tyr705) and total Stat3. In additional studies, rat neonatal myocytes were cultured, then exposed to interleukin 6 (IL-6, Cell Signaling, 100 ng/ml) for one hour. […] In other studies, cells were pre-transfected (Lipofectamine™, Invitrogen) with mixed oligonucleotide silencing RNAs for STAT3 (siRNA, SmarTTpool Stat3). Protein extracts were obtained from myocyte extracts after the 1 hour incubation period, and probed for phosphorylated and total protein levels of Stat1 (Tyr701) and Stat3 (Tyr705) (Cell Signaling Inc.). siRNA was transfected into neonatal myocytes.

NOS3 = NOS3 dimer/monomer Western blot in TAC hearts; assay type: in vivo, mouse; details: 3 weeks TAC
[2] = test system: C57BL/6 mice, pressure overload by transverse aortic constriction; test: In vivo cardiac hemodynamics by pressure-volume analysis, TAC mice; design: species or system mouse
Procedure: as §1
Transthoracic two-dimensional guided M-mode echocardiography was performed in non-anesthetized mice. Measurements were done using an echocardiography system, the SEQUOIA C256 (Siemens, Munich, Del.) with the 15 MHz linear-array transducer. Intact heart hemodynamic analysis was performed as described^90. These studies employed a four-electrode pressure-volume catheter (model SPR-839, Millar Instruments) placed through the left ventricular apex in the open chest anesthetized animal and positioned along the longitudinal axis to record chamber volume by impedance and pressure by micromanometry.
All hemodynamic data were recorded using custom developed software, digitizing signals at 2 KHz. End-diastolic and end-systolic volumes were the average of volumes measured during isovolumic contraction and relaxation, respectively. ESP was the pressure at maximal chamber elastance (P/V ratio)^1. EDP was the diastolic pressure at the lower right hand corner of the pressure-volume loop. Cardiac output was determined from a perivascular flow probe (Transonics, Ithica, N.Y.) placed around the thoracic aorta. Ea was equal to the ratio of end-systolic pressure divided by stroke volume. The volume catheter signal was calibrated for both gain and offset. Gain was determined by setting the catheter-derived cardiac output (equal to pressure-volume loop width times heart rate) to that obtained from the calibrated flow probe value. Offset was determined using the hypertonic saline method Ventricular power was equal to the instantaneous product of pressure times flow, and the peak power was divided by EDV to obtain the power index PMXI^79. […] The slope of this relation Ees was normalized by heart mass and expressed per gm heart mass. Msw was derived from the linear relation between stroke work and EDV from the same set of variably loaded cardiac cycles used to derive Eesn, and is another load-independent assessment of systolic contractile function^4. Tau was obtained from the model: P=Po+ae^−t/□ . . . fitting data during isovolumic relaxation. dP/dt was derived from a digital filter (5-point weighted slope). PFR/EDV was derived from the maximal first derivative of the volume signal during early diastole, divided by EDV.

MMP-2 and MMP-9 = test: Cardiac gelatinase zymography; assay type: in vivo, mouse; details: 3W TAC, co-treatment
Procedure: In Vitro gelatin lysis by MMP-2 and MMP-9 was assessed by zymography. Briefly, modified Laemmli buffer without mercaptoethanol was added to lysed tissue samples and loaded on 10% gelatin (Invitrogen Corp., San Diego, Calif.). After electrophoresis, gels were washed twice with renaturing buffer at room temperature followed by developing buffer (Invitrogen Corp., San Diego, Calif.), then stained with a commercially available Coomassie stain to visualize lytic bands (SIMPLYBLUe, Invitrogen Corp., San Diego, Calif.).

PKG-1 = test: Whole heart PKG-1 activity; assay type: in vivo, mouse; details: chronic treatment
Procedure: PI3Kα activity was assessed by Elisa assay following immunoprecipitation of PI3K (Seize X IP Kit, Pierce) using a p85α monoclonal antibody (Cell Signaling), with activity measured by fluorescence polarization (Molecular Devices, Perkin-Elmer Victor 3 plate reader). Akt activity (IP with s473-pAkt Ab, GSK-3 fusion protein substrate) was performed using a commercial kit (Cell Signaling Technology, Beverly, Mass.). PKG-1 activity was assayed by calorimetric analysis, CycLex (Clinisciences, Montrouge, FR) from whole heart lysates.

[3] = test system: total cGMP-esterase activity; test: cGMP-esterase (low Km cGMP phosphodiesterase) activity of heart and isolated myocytes; assay type: biochemical, mouse

CCCc1nn(C)c2c(=O)[nH]c(-c3cc(S(=O)(=O)N4CCN(C)CC4)ccc3OCC)nc12 [sildenafil]
myocyte hypertrophy and interstitial fibrosis, established hypertrophy ([1]; 1-week TAC, then 2 weeks treatment): both reversed towards baseline | reduction in fibrosis ([1]; 9-week TAC hearts): 67% | TAC-induced hypertrophy and chamber remodeling ([1]; TAC mice, concurrent oral treatment): inhibited | reduction of cardiac hypertrophy (heart weight/tibia length) ([1]; TAC mice, sildenafil 100 mg/kg/day): more than 50% | effect on sham-operated controls ([1]; sham-operated mice): no impact | IL-6 induced STAT activation (STAT3): prevented the STAT activation | NOS3 dimer (280 kD) level (NOS3): prevented the loss of NOS dimer | CO (cardiac output) ([2]; 3 wk TAC + Delay (2 wk) Sil): 10.7 ± 0.5 mL/min | EDP (LV end-diastolic pressure) ([2]; 3 wk TAC + Delay (2 wk) Sil): 7.5 ± 0.6 mmHg | EDV (LV end-diastolic volume) ([2]; 3 wk TAC + Delay (2 wk) Sil): 29.4 ± 2.0 µL | EF (ejection fraction) ([2]; 3 wk TAC + Delay (2 wk) Sil): 64.0 ± 4.7% | ESP (LV end-systolic pressure) ([2]; 3 wk TAC + Delay (2 wk) Sil): 184.0 ± 9.1 (b) mmHg | ESV (LV end-systolic volume) ([2]; 3 wk TAC + Delay (2 wk) Sil): 10.9 ± 2.1 µL | Ea (effective arterial elastance) ([2]; 3 wk TAC + Delay (2 wk) Sil): 9.9 ± 0.6 (b) mmHg/μL | Eesn (end-systolic elastance normalized to heart mass) ([2]; 3 wk TAC + Delay (2 wk) Sil): 111.0 ± 31.4 mmHg/μL/g | HR (heart rate) ([2]; 3 wk TAC + Delay (2 wk) Sil): 574.6 ± 21.7 MIN^− | Msw (preload recruitable stroke work) ([2]; 3 wk TAC + Delay (2 wk) Sil): 171.3 ± 27.6 (i) mmHg | PFR/EDV (peak diastolic filling rate normalized to EDV) ([2]; 3 wk TAC + Delay (2 wk) Sil): 30.6 ± 3.6 s⁻¹ | Tau (time constant of pressure relaxation) ([2]; 3 wk TAC + Delay (2 wk) Sil): 7.5 ± 0.3 M·s | dP/dtmax (maximal rate of pressure rise) ([2]; 3 wk TAC + Delay (2 wk) Sil): 14879 ± 898 mmHg/s | dP/dtmin (peak rate of LV pressure decline) ([2]; 3 wk TAC + Delay (2 wk) Sil): −14325 ± 445 (j) mmHg/s | dP/dtmx/IP (dP/dtmax normalized to instantaneous developed pressure) ([2]; 3 wk TAC + Delay (2 wk) Sil): 209.4 ± 11.1 s⁻¹ | CO (cardiac output) ([2]; 3 wk TAC + Sil): 9.4 ± 0.5 mL/min | EDP (LV end-diastolic pressure) ([2]; 3 wk TAC + Sil): 7.6 ± 1.4 mmHg | EDV (LV end-diastolic volume) ([2]; 3 wk TAC + Sil): 22.2 ± 1.5 µL | EF (ejection fraction) ([2]; 3 wk TAC + Sil): 72.6 ± 5.7% | ESP (LV end-systolic pressure) ([2]; 3 wk TAC + Sil): 163.6 ± 5.6 (b) mmHg | ESV (LV end-systolic volume) ([2]; 3 wk TAC + Sil): 6.4 ± 1.7 µL | Ea (effective arterial elastance) ([2]; 3 wk TAC + Sil): 10.5 ± 0.8 (b) mmHg/μL | Eesn (end-systolic elastance normalized to heart mass) ([2]; 3 wk TAC + Sil): 133.0 ± 25.1 (i) mmHg/μL/g | HR (heart rate) ([2]; 3 wk TAC + Sil): 598.8 ± 23.8 MIN^− | Msw (preload recruitable stroke work) ([2]; 3 wk TAC + Sil): 162.5 ± 10.5 (i) mmHg | PFR/EDV (peak diastolic filling rate normalized to EDV) ([2]; 3 wk TAC + Sil): 43.1 ± 4.9 (k) sec^−1 | Tau (time constant of pressure relaxation) ([2]; 3 wk TAC + Sil): 6.3 ± 0.4 M·s | dP/dtmax (maximal rate of pressure rise) ([2]; 3 wk TAC + Sil): 18638 ± 1379 (f) mmHg/s | dP/dtmin (peak rate of LV pressure decline) ([2]; 3 wk TAC + Sil): −16758 ± 917 (f) mmHg/s | dP/dtmx/IP (dP/dtmax normalized to instantaneous developed pressure) ([2]; 3 wk TAC + Sil): 256.5 ± 8.4 g/s | CO (cardiac output) ([2]; Sildenafil 3 wk, no TAC): 11.1 ± 1.1 mL/min | EDP (LV end-diastolic pressure) ([2]; Sildenafil 3 wk, no TAC): 6.5 ± 1.0 mmHg | EDV (LV end-diastolic volume) ([2]; Sildenafil 3 wk, no TAC): 32.8 ± 2.3 µL | EF (ejection fraction) ([2]; Sildenafil 3 wk, no TAC): 61.4 ± 6.1% | ESP (LV end-systolic pressure) ([2]; Sildenafil 3 wk, no TAC): 101.5 ± 2.6 mmHg | ESV (LV end-systolic volume) ([2]; Sildenafil 3 wk, no TAC): 13.0 ± 2.7 µL | Ea (effective arterial elastance) ([2]; Sildenafil 3 wk, no TAC): 5.3 ± 0.5 mmHg/μL | Eesn (end-systolic elastance normalized to heart mass) ([2]; Sildenafil 3 wk, no TAC): 47.6 ± 5.8 mmHg/μL/g | HR (heart rate) ([2]; Sildenafil 3 wk, no TAC): 558.5 ± 22.9 MIN^− | Msw (preload recruitable stroke work) ([2]; Sildenafil 3 wk, no TAC): 84.0 ± 5.7 mmHg | PFR/EDV (peak diastolic filling rate normalized to EDV) ([2]; Sildenafil 3 wk, no TAC): 34.1 ± 1.9 s⁻¹ | Tau (time constant of pressure relaxation) ([2]; Sildenafil 3 wk, no TAC): 7.6 ± 0.4 M·s | dP/dtmax (maximal rate of pressure rise) ([2]; Sildenafil 3 wk, no TAC): 11843 ± 681 mmHg/s | dP/dtmin (peak rate of LV pressure decline) ([2]; Sildenafil 3 wk, no TAC): −10689 ± 399 mmHg/s | dP/dtmx/IP (dP/dtmax normalized to instantaneous developed pressure) ([2]; Sildenafil 3 wk, no TAC): 183.7 ± 6.9 s⁻¹ | gelatinase activity (gel lysis) (MMP-2 and MMP-9): largely inhibited | whole heart PKG-1 activity (PKG-1; TAC hearts): more than doubled PKG-1 activity | whole heart PKG-1 activity (PKG-1; sham controls): no effect on activity | proportion of total cGMP-esterase activity attributable to PDE5 ([3]; 3 week TAC hearts): ~60% | PDE5A-dependent cGMP-esterase activity by radio-enzyme assay ([3]; NTG, n=9): 32±17.3% | percent of total cGMP-esterase activity blocked by co-incubation ([3]; sham control hearts (baseline)): approximately 30%
